Like-named read-outs stand apart in the source and are kept apart here.
Columns and labels:
[1] = system: A549 human lung adenocarcinoma cells; experiment: MTT cytotoxicity assay, A549; assay type: cell-based; details: MTT, 24 h, read-out: IC50 A549 Cell Line
Description: (§1) C6 Rat glioma and NIH/3T3 mouse embryonic fibroblast cells were incubated in Dulbecco’s Modified Eagle’s Medium (DMEM) (Sigma, Deisenhofen, Germany) supplemented with 10% fetal calf serum (Gibco, Paisley, UK). A549 Human lung adenocarcinoma cells were incubated in 90% RPMI supplemented with 10% fetal bovine serum (Gibco). […] Exponentially growing cells were plated at 2 × 10^4 cells/mL into 96-well microtiter tissue culture plates (Nunc, Roskilde, Denmark) and incubated for 24 h before the addition of the drugs (the optimum cell number for cytotoxicity assays was determined in preliminary experiments).
(§2) The level of cellular 3-(4,5-dimethylthiazol-2-yl)-2,5-diphenyltetrazolium bromide (MTT) (Sigma) reduction was quantified as previously described in the literature with small modifications. […] At the end of this period, MTT was added to a final concentration of 0.5 mg/mL and the cells were incubated for 4 h at 37 °C. After the medium was removed, the formazan crystals formed by MTT metabolism were solubilized by addition of 200 µL DMSO to each well and absorbance was read at 540 nm with a microtiter plate spectrophotometer (Bio-Tek Plate Reader, Winooski, VT, USA). Every concentration was repeated in three wells.

A549 cells [2] = experiment: DNA synthesis inhibition (BrdU ELISA), A549; assay type: cell-based, human; details: A549, compound at its IC50, 24 h
Description: (§3) The immunostaining procedure was carried out with specific anti-BrdU antibodies in the S-phase of the cell cycle. DNA synthesis inhibitory effects of all compounds were evaluated for 24 h. A549 and C6 cell lines were incubated with three different concentrations of the compounds that were determined according to their IC50 values. Cisplatin was used as a positive control.
(§4) Analysis of DNA synthesis was measured by a Cell Proliferation ELISA, BrdU (colorimetric) kit (Roche, Mannheim, Germany). This immunostaining procedure is based on measuring the incorporation of bromodeoxyuridine (BrdU) into nuclear DNA in place of thymidine during the S-phase of the cell cycle using specific anti-BrdU antibodies. […] Firstly cells were seeded into 96 well flat-bottomed microtiter plates at a density of 2 × 10^3. […] Microtiter plates were incubated at 37 °C in a 5% CO2/95% air humidified atmosphere for 24 h. Cells were labeled with 10 µL BrdU solution for 2 h and then fixed. Anti-BrdU-POD (100 µL) was added and incubated for 90 min. Finally, wells were washed with BPS and cells were incubated with substrate. Absorbance of the samples was measured with an ELX808-IU Bio-Tek apparatus at 492 nm. All experiments were repeated two times. For each compound dose, dublicate wells were used.

C6 cells [3] = experiment: Mitochondrial membrane potential (JC-1) flow cytometry, C6; assay type: cell-based, rat; details: IC50 dose, 24 h
Description: (§5) During apoptosis, several key events occur in mitochondria including the release of cytochrome c, changes in electron transport, and loss of mitochondrial transmembrane potential (ΔΨm). For this reason, ΔΨm is an important parameter of mitochondrial function in apoptosis.
(§6) The cells were seeded in six-well plates at a density of 10^5 cells/mL, and the IC50 dose of compounds 2, 5 and 10 was added to cells. The cells were incubated in 5% CO2 air-conditioned atmosphere at 37 °C. […] 5,5′,6,6′-Tetrachloro-1,1′,3,3′-tetraethylbenzimidazolylcarbocyanine iodide (JC-1) dye solution (1× assay buffer + JC-1 stock solution) was added to the cells. The stock solution was prepared by dissolving DMSO. Then the samples were incubated at a temperature of 37 °C for 10–15 min. After incubation, the cells were washed twice with an assay buffer and analyzed by BD FACS Aria Cell Sorter Software version 6.1.1 flow cytometry (BD Biosciences). The cells showing mitochondrial membrane potential disruption were determined as a percentage of all cells.

C6 rat glioma cells = experiment: MTT cytotoxicity assay, C6; assay type: cell-based; details: MTT, 24 h, read-out: IC50 C6 Cell Line
Description: as §1, §2

C6 cells [4] = experiment: DNA synthesis inhibition (BrdU ELISA), C6; assay type: cell-based, rat; details: C6, compound at its IC50, 24 h
Description: as §3, §4

A549 cells [5] = experiment: Annexin V-PI flow cytometry of apoptosis, A549; assay type: cell-based; details: IC50 dose, 24 h
Description: (§7) Annexin V staining protocol was applied according to the manufacturer’s instructions (BD Pharmingen). The cells were then briefly washed with cold phosphate buffer saline (PBS) and suspended in a binding buffer at a concentration of 1 × 10^6 cells/mL. Then, 100 µL of this solution containing 1 × 10^5 cells was transferred to a 5 mL test tube. After 5 µL of Annexin-V and PI was added, the cells were incubated for 15 min at room temperature in the dark. Then 400 µL of 1x Binding Buffer was added to each tube and the cells were processed for data acquisition, and analyzed on a Becton–Dickinson FACS Aria using […] Version 6.1.1. Software (BD Biosciences, San Jose, CA, USA).

SIRT1 = experiment: Sirtuin-1 detection by ELISA in C6 glioma cells; assay type: cell-based, rat; details: 24 h
C6 cells [6] = experiment: Annexin V-PI flow cytometry of apoptosis, C6; assay type: cell-based; details: IC50 dose, 24 h
Description: as §7

A549 cells [7] = experiment: Mitochondrial membrane potential (JC-1) flow cytometry, A549; assay type: cell-based, human; details: IC50 dose, 24 h
Description: as §5, §6

[8] = system: NIH/3T3 mouse embryonic fibroblast cells; experiment: MTT cytotoxicity assay, NIH/3T3; assay type: cell-based; details: NIH3T3, 24 h, read-out: IC50 NIH/3T3 Cell Line
Description: C6 Rat glioma and NIH/3T3 mouse embryonic fibroblast cells were incubated in Dulbecco’s Modified Eagle’s Medium (DMEM) (Sigma, Deisenhofen, Germany) supplemented with 10% fetal calf serum (Gibco, Paisley, UK). A549 Human lung adenocarcinoma cells were incubated in 90% RPMI supplemented with 10% fetal bovine serum (Gibco). All media were supplemented with 100 IU/mL penicillin-streptomycin (Gibco) and cells were incubated at 37 °C in a humidified atmosphere of 95% air and 5% CO2. Exponentially growing cells were plated at 2 × 10^4 cells/mL into 96-well microtiter tissue culture plates (Nunc, Roskilde, Denmark) and incubated for 24 h before the addition of the drugs (the optimum cell number for cytotoxicity assays was determined in preliminary experiments). The stock solutions of the compounds were prepared in dimethyl sulfoxide (DMSO; Sigma Aldrich, Poole, UK) and further dilutions were made with fresh culture medium (the concentration of DMSO in the final culture medium was <0.1% which had no effect on the cell viability).
as §2

AChE = AChE (Electrophorus electricus, UniProt O42275); experiment: biochemical; assay type: biochemical; details: tested at 5–80 μg/mL
AChE, sequence (O42275 24-633): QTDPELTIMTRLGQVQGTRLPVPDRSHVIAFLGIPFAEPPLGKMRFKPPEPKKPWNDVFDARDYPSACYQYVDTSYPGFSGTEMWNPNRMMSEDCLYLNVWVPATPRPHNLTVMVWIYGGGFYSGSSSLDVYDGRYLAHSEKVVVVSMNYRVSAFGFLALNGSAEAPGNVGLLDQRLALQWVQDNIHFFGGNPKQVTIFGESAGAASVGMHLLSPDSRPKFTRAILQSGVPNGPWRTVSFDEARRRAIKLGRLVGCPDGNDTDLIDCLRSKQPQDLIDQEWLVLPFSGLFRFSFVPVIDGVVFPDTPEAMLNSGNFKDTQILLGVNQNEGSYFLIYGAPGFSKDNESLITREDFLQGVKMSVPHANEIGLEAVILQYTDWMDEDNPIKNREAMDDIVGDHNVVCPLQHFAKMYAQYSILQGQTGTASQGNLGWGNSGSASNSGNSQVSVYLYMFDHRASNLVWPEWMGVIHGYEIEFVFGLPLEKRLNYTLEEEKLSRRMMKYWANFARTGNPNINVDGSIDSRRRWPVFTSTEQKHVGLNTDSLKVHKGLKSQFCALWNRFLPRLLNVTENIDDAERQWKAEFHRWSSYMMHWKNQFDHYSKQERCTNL

BuChE = BuChE (Homo sapiens, UniProt P06276); experiment: BuChE inhibition, modified Ellman's method; assay type: biochemical
BuChE, sequence (P06276 29-602): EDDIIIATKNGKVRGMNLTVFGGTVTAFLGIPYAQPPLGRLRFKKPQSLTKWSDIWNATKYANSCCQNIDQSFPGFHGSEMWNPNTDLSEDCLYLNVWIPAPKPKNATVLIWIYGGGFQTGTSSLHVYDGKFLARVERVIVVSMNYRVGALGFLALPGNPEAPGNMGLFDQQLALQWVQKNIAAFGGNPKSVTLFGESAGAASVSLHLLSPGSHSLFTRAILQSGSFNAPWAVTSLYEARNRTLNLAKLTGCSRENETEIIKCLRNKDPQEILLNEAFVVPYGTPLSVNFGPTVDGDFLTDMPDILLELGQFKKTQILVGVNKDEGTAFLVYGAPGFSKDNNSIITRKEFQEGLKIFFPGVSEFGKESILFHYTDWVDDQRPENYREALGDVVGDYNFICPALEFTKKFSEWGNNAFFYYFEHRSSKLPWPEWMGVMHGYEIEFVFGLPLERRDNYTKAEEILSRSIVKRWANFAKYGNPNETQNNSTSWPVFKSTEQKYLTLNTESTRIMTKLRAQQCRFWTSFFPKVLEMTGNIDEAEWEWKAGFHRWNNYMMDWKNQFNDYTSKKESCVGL

ribonucleotide reductase = system: ribonucleotide reductase; set-up: method as in PMID 21425997, PMID 22655252, PMID 22963201, PMID 19601577, PMID 26335599; details: both enzyme and cell assays; cited from earlier work

Structure (SMILES) | DNA synthesis inhibition percent (A549 cells [2]) [%] | P2 (%) mitochondrial membrane polarized cells, C6 Cells (C6 cells [3]) [%] | P3 (%) mitochondrial membrane depolarized cells, C6 Cells (C6 cells [3]) [%] | DNA synthesis inhibition percent (C6 cells [4]) [%] | Early and Late Apoptotic Cells % A549 Cells (A549 cells [5]) [%] | Early and Late Apoptotic Cells % C6 Cells (C6 cells [6]) [%] | P2 (%) mitochondrial membrane polarized cells, A549 Cells (A549 cells [7]) [%] | P3 (%) mitochondrial membrane depolarized cells, A549 Cells (A549 cells [7]) [%] | further results
N.N.[Cl][Pt][Cl] [Cisplatin, reference compound] | 55.73 | 46.6 | 48.4 | 53.95 | 32.4 | 16.3 | 41.4 | 54.0 | IC50 [1]: 3 ± 0.88 µM; IC50 (C6 rat glioma cells): 6.83 ± 0.28 µM; SIRT1 Concentration (SIRT1; IC50/2 concentration): 4.53 ± 1.37 ng/mL; SIRT1 Concentration (SIRT1; IC50 concentration): 3.32 ± 1.41 ng/mL
S=C(N/N=C/c1cc2c(cc1Br)OCO2)Nc1ccc2c(c1)OCO2 [Compound 10] | 56.38 | 35.1 | 63.7 | 53.96 | 6.2 | 15.8 | 21.9 | 57.9 | IC50 [8]: 38.3 ± 2.08 µM; IC50 ([1]; Homo sapiens, A549): 29.7 ± 5.51 µM; IC50 (C6 rat glioma cells; Rattus norvegicus, C6): 12.3 ± 4.93 µM; IC50 (AChE): 108 ± 3.53 µM; inhibition on BuChE (in words) (BuChE): weak inhibition; IC50 (BuChE; tested at 5–80 μg/mL): > 189 µM; Viability % A549 Cells (A549 cells [5]): 81.2%; Viability % C6 Cells (C6 cells [6]): 69.6%
NC(=S)NN=Cc1ncccc1N [Triapine, 3-aminopyridine-2-carboxaldehyde thiosemicarbazone] |  |  |  |  |  |  |  |  | potency relative to hydroxyurea (ribonucleotide reductase): 1000 times

Reference: article PMC6273715, “Synthesis and Evaluation of New Benzodioxole- Based Thiosemicarbazone Derivatives as Potential Antitumor Agents” (Molecules, 2016)
